Like-named read-outs stand apart in the source and are kept apart here.
Tests used:
[1] = Stability in urine under different storage conditions; type: physicochemical, human
Protocol: (§4) The stability of plasma and urine samples were evaluated at three different QC concentration levels (LQC, MQC and HQC, n = 3 for each level); the conditions were freeze–thaw stability, long-term stability, short-term stability, and post preparative stability in an autosampler. The evaluation of stability under freeze–thaw condition was carried out over five cycles of − 80 °C for at least 12 h of each cycle. Long-term stability was analyzed after storing the samples at − 80 °C. Short-term stability of each analyte, for up to 8 h during processing on the bench at room temperature, was also evaluated. For evaluation of post-preparative stability, the extracted samples were stored at ambient temperature (4 °C) in an autosampler for 24 h. The analyte was considered as a stable sample when the average percentage of accuracy of the QC sample was in the range of 85–115% and the %CV was not over 15%.

[2] = Cumulative urine excretion after single oral administration of A. paniculata extract; type: in vivo, human
Protocol: (§1) An aliquot of 50 µL of plasma or urine was placed in a 1.5 mL of polypropylene centrifuge micro-tube. Protein was removed from the sample by adding 200 µL of methanol (containing 50.00 ng/mL of IS). The mixture was vortexed for 10 min and was then centrifuged at 12,000 rpm, 4 °C for 10 min. The supernatant was filtered through a […] PVDF membrane (Chrom Tech) and transferred into a glass insert in a vial before LC‑MS/MS analysis.
(§2) The clinical pharmacokinetic study was designed as an open-labeled, with a single oral dosing, and conducted under a fasting condition. Four healthy subjects were recruited according to the following inclusion criteria: 18—55 years old with a body mass index (BMI) of 18–30 kg/m^2. Study participants were identified as healthy based on laboratory testing and physical examinations. The participants received 3 capsules containing A. paniculata extract (calculated as 60 mg of andrographolide/dose) before breakfast with 240 mL of drinking water. Blood samples, in EDTA tubes, were taken after oral administration at 0, 10, 20, 30, 45 min, and 1, 1.5, 2, 4, 6, 8, 10, 12, 24 h post dose. All blood samples were then centrifuged at 4000 ± 100 rpm, 4 °C for 5 min. Plasma was pipetted and stored in cryotubes at − 80 °C until further analysis. Urine samples were collected during 0–4, 4–8, 8–12, 12–24, 24–32, 32–40 and 40–48 h after dosing and were then kept at − 80 °C before sample extraction.
(§3) Finally, the hydrolysis of glucuronide metabolites in the pharmacokinetic study was performed according to the following process: 50 µL of plasma or urine sample was incubated for 30 min with 50 µL of 1000 U/mL β-glucuronidase in phosphate buffer pH 6.8 (composed of 0.1 M sodium phosphate monobasic and 0.1 M sodium phosphate dibasic) at 37 °C. For the hydrolysis of sulfatase, 50 µL of 100 units/mL of sulfatase in an acetate buffer at pH 5.0 (composed of 0.1 M acetic acid and 0.1 M sodium acetate) was added into 50 µL of sample; the mixture was then incubated at 37 °C for 2 h. The reaction was stopped in all hydrolysis samples with 150 µL of cold methanol, and then protein precipitation was performed prior to LC–MS/MS analysis. However, due to unavailable standard of the conjugated forms (AP-glucuronide and […]). The quantitative analysis of conjugated metabolites was determined after the hydrolysis reaction by enzymatic digestion, and the free form was analyzed without hydrolysis. The conjugated standards of AP-glucuronide or AP-sulfate should be synthesized for determining the exact amount of the glucuronide or sulfate.

[3] = plasma
Protocol: as §4

[4] = Clinical pharmacokinetics in plasma after single oral administration of A. paniculata extract; type: in vivo, human; details: for Cmax / AUC(0-t) / Vd/F / Tmax / half-life: human, parent compound in plasma, single oral dose of extract (60 mg andrographolide); for Cmax: healthy subjects n = 4; for Cmax / AUC(0-t) / Vd/F: mean ± SD; for AUC(0-t) / Vd/F / Tmax / half-life: n = 4; for Tmax / half-life: median; for AUC of both conjugated metabolites compared to the respective parent compounds: plasma, single oral dose of extract
Protocol: as §1, §2
Pharmacokinetic parameters were determined by non-compartmental analysis using PK solutions software, version 2.0 (Summit Research Services). The maximum concentration of four targeted compounds (Cmax) and the time to reach maximum concentration (Tmax) were taken directly from the individual plasma concentration versus time profiles. The area under the curve from time zero to the last sampling time (AUC0-t) was estimated using the linear trapezoidal rule. The apparent volume of distribution (Vd/F) and the elimination half-life (t1/2) were determined using non-compartmental analysis.
as §3

[5] = Freeze–thaw stability 5 cycles, 2.50 ng/mL (LQC)
[6] = Freeze–thaw stability 5 cycles, 500.00 ng/mL (MQC)
[7] = Freeze–thaw stability 5 cycles, 900.00 ng/mL (HQC)
[8] = Long term stability 3 months at − 80 °C, 2.50 ng/mL (LQC)
[9] = Long term stability 3 months at − 80 °C, 500.00 ng/mL (MQC)
[10] = Long term stability 3 months at − 80 °C, 900.00 ng/mL (HQC)
[11] = Post preparative stability 24 h at autosampler, 2.50 ng/mL (LQC)
[12] = Post preparative stability 24 h at autosampler, 500.00 ng/mL (MQC)
[13] = Post preparative stability 24 h at autosampler, 900.00 ng/mL (HQC)
[14] = Short term stability 8 h at room temperature, 2.50 ng/mL (LQC)
[15] = Short term stability 8 h at room temperature, 500.00 ng/mL (MQC)
[16] = Short term stability 8 h at room temperature, 900.00 ng/mL (HQC)

C=C1CC[C@@H]2[C@](C)(CO)[C@H](O)CC[C@@]2(C)[C@@H]1C/C=C1/C(=O)OC[C@H]1O [AP1, andrographolide]
%Accuracy [1, 5]: 94.39%
Measured concentration [1, 5]: 2.36 ± 0.20 ng/mL
%Accuracy [1, 6]: 94.01%
Measured concentration [1, 6]: 470.05 ± 32.15 ng/mL
%Accuracy [1, 7]: 98.78%
Measured concentration [1, 7]: 889.00 ± 36.63 ng/mL
%Accuracy [1, 8]: 95.31%
Measured concentration [1, 8]: 2.38 ± 0.16 ng/mL
%Accuracy [1, 9]: 91.78%
Measured concentration [1, 9]: 458.89 ± 20.53 ng/mL
%Accuracy [1, 10]: 98.08%
Measured concentration [1, 10]: 882.74 ± 14.22 ng/mL
%Accuracy [1, 11]: 94.23%
Measured concentration [1, 11]: 2.36 ± 0.18 ng/mL
%Accuracy [1, 12]: 95.00%
Measured concentration [1, 12]: 474.97 ± 23.30 ng/mL
%Accuracy [1, 13]: 99.66%
Measured concentration [1, 13]: 896.96 ± 17.62 ng/mL
%Accuracy [1, 14]: 93.15%
Measured concentration [1, 14]: 2.33 ± 0.06 ng/mL
%Accuracy [1, 15]: 95.80%
Measured concentration [1, 15]: 479.00 ± 32.64 ng/mL
%Accuracy [1, 16]: 101.88%
Measured concentration [1, 16]: 916.95 ± 32.00 ng/mL
Route of excretion [2]: primarily excreted renally
%Accuracy [3, 5]: 97.99%
Measured concentration [3, 5]: 2.45 ± 0.06 ng/mL
%Accuracy [3, 6]: 93.01%
Measured concentration [3, 6]: 465.07 ± 25.39 ng/mL
%Accuracy [3, 7]: 95.28%
Measured concentration [3, 7]: 857.48 ± 19.46 ng/mL
%Accuracy [3, 8]: 94.28%
Measured concentration [3, 8]: 2.36 ± 0.06 ng/mL
%Accuracy [3, 9]: 91.77%
Measured concentration [3, 9]: 458.87 ± 8.67 ng/mL
%Accuracy [3, 10]: 99.25%
Measured concentration [3, 10]: 893.21 ± 22.77 ng/mL
%Accuracy [3, 11]: 93.81%
Measured concentration [3, 11]: 2.35 ± 0.18 ng/mL
%Accuracy [3, 12]: 92.60%
Measured concentration [3, 12]: 463.01 ± 10.97 ng/mL
%Accuracy [3, 13]: 99.52%
Measured concentration [3, 13]: 895.66 ± 31.23 ng/mL
%Accuracy [3, 14]: 93.65%
Measured concentration [3, 14]: 2.34 ± 0.15 ng/mL
%Accuracy [3, 15]: 89.06%
Measured concentration [3, 15]: 445.29 ± 9.56 ng/mL
%Accuracy [3, 16]: 98.76%
Measured concentration [3, 16]: 888.87 ± 23.16 ng/mL
Cmax [4]: 60.9 ± 26.5 ng/mL
AUC(0-t) [4]: 210 ± 21.1 ng·h/mL
Vd/F [4]: 4.58 ± 3.28 L/kg
Tmax [4]: 0.8 h
half-life [4]: 76.2 min
AUC of both conjugated metabolites compared to the respective parent compounds [4]: greater

C=C1CC[C@@H]2[C@](C)(CO)[C@H](O)CC[C@@]2(C)[C@@H]1/C=C/C1=CCOC1=O [AP3, 14-deoxy-11, 12-didehydroandrographolide]
%Accuracy [1, 5]: 93.92%
Measured concentration [1, 5]: 2.35 ± 0.10 ng/mL
%Accuracy [1, 6]: 91.91%
Measured concentration [1, 6]: 459.54 ± 15.54 ng/mL
%Accuracy [1, 7]: 100.19%
Measured concentration [1, 7]: 901.72 ± 35.81 ng/mL
%Accuracy [1, 8]: 94.28%
Measured concentration [1, 8]: 2.36 ± 0.06 ng/mL
%Accuracy [1, 9]: 90.36%
Measured concentration [1, 9]: 451.82 ± 15.00 ng/mL
%Accuracy [1, 10]: 98.18%
Measured concentration [1, 10]: 883.61 ± 32.83 ng/mL
%Accuracy [1, 11]: 93.61%
Measured concentration [1, 11]: 2.34 ± 0.11 ng/mL
%Accuracy [1, 12]: 90.33%
Measured concentration [1, 12]: 451.66 ± 9.81 ng/mL
%Accuracy [1, 13]: 100.28%
Measured concentration [1, 13]: 902.47 ± 52.60 ng/mL
%Accuracy [1, 14]: 94.35%
Measured concentration [1, 14]: 2.36 ± 0.07 ng/mL
%Accuracy [1, 15]: 90.63%
Measured concentration [1, 15]: 453.16 ± 19.26 ng/mL
%Accuracy [1, 16]: 101.88%
Measured concentration [1, 16]: 916.89 ± 26.49 ng/mL
Route of excretion [2]: primarily excreted renally
%Accuracy [3, 5]: 102.35%
Measured concentration [3, 5]: 2.56 ± 0.21 ng/mL
%Accuracy [3, 6]: 93.25%
Measured concentration [3, 6]: 466.24 ± 38.67 ng/mL
%Accuracy [3, 7]: 98.75%
Measured concentration [3, 7]: 888.74 ± 16.64 ng/mL
%Accuracy [3, 8]: 87.13%
Measured concentration [3, 8]: 2.18 ± 0.05 ng/mL
%Accuracy [3, 9]: 94.32%
Measured concentration [3, 9]: 471.59 ± 4.35 ng/mL
%Accuracy [3, 10]: 98.11%
Measured concentration [3, 10]: 883.01 ± 16.08 ng/mL
%Accuracy [3, 11]: 97.41%
Measured concentration [3, 11]: 2.44 ± 0.04 ng/mL
%Accuracy [3, 12]: 94.34%
Measured concentration [3, 12]: 471.70 ± 15.57 ng/mL
%Accuracy [3, 13]: 100.12%
Measured concentration [3, 13]: 901.09 ± 11.50 ng/mL
%Accuracy [3, 14]: 97.61%
Measured concentration [3, 14]: 2.44 ± 0.04 ng/mL
%Accuracy [3, 15]: 94.40%
Measured concentration [3, 15]: 472.00 ± 19.37 ng/mL
%Accuracy [3, 16]: 98.65%
Measured concentration [3, 16]: 887.83 ± 21.04 ng/mL
Cmax [4]: 83.8 ± 22.2 ng/mL
AUC(0-t) [4]: 309 ± 59 ng·h/mL
Vd/F [4]: 0.73 ± 0.1 L/kg
Tmax [4]: 1.5 h
half-life [4]: 82.8 min
AUC of both conjugated metabolites compared to the respective parent compounds [4]: greater
